Experiments:
Assay in all cases: Kinase profiling
Type in all cases: biochemical
RIPK2 = target: T1, RIPK2 (Homo sapiens, UniProt O43353)
T1 construct: purchased ProQinase (Freiburg, Germany)
Description: (§1) The analysis was performed by ProQinase (Freiburg, Germany).

MKK4 = target: T2, MKK4 (Homo sapiens, UniProt P45985)
T2 construct: purchased ProQinase (Freiburg, Germany)
T2 sequence (P45985 1-399): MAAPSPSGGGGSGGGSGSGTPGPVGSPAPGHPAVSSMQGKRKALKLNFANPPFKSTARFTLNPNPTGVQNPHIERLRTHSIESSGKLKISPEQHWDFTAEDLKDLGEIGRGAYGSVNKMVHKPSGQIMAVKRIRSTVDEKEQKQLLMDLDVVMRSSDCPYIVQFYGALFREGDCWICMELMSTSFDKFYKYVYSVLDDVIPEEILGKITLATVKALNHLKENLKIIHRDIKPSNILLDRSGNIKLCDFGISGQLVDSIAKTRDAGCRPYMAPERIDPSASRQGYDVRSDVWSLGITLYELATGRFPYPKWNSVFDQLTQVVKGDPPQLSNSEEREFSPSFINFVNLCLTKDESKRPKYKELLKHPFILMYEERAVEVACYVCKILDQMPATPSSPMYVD
Description: as §1

HIPK2 = target: T3, HIPK2 (Homo sapiens, UniProt Q9H2X6)
T3 construct: purchased ProQinase (Freiburg, Germany)
T3 sequence (Q9H2X6 whole entry): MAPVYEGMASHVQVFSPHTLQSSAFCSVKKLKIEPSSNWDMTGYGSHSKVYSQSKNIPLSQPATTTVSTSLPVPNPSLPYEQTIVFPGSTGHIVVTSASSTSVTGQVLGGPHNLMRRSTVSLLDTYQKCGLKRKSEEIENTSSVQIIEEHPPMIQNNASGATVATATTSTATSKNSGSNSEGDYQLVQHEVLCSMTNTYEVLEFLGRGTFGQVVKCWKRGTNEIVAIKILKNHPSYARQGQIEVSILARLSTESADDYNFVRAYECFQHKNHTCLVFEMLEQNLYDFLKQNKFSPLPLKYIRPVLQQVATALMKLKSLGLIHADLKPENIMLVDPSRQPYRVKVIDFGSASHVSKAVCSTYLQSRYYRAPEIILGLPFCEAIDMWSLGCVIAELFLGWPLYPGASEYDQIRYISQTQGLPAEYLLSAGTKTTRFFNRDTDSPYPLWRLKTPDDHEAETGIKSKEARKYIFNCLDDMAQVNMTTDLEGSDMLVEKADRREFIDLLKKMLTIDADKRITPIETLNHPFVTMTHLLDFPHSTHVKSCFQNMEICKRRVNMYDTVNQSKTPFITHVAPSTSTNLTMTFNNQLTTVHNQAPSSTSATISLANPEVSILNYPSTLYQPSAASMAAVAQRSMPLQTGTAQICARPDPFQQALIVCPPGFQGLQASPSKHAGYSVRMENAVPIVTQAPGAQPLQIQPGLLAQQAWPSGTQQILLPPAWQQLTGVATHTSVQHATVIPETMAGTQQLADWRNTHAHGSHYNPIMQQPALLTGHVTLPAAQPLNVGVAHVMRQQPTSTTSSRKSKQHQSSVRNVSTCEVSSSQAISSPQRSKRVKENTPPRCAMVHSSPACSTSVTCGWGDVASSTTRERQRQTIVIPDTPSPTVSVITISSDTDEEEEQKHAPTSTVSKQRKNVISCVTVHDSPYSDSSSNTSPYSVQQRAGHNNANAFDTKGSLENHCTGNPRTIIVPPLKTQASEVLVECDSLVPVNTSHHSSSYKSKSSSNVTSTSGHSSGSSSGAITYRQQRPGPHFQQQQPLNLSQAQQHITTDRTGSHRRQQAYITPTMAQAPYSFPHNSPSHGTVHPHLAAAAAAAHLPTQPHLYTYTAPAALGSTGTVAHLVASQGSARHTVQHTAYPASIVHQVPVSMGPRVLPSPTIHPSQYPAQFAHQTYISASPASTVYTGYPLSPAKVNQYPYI
Description: as §1

MARK3 = target: T4, MARK3 (Homo sapiens, UniProt P27448)
T4 construct: purchased ProQinase (Freiburg, Germany)
T4 sequence (P27448 whole entry): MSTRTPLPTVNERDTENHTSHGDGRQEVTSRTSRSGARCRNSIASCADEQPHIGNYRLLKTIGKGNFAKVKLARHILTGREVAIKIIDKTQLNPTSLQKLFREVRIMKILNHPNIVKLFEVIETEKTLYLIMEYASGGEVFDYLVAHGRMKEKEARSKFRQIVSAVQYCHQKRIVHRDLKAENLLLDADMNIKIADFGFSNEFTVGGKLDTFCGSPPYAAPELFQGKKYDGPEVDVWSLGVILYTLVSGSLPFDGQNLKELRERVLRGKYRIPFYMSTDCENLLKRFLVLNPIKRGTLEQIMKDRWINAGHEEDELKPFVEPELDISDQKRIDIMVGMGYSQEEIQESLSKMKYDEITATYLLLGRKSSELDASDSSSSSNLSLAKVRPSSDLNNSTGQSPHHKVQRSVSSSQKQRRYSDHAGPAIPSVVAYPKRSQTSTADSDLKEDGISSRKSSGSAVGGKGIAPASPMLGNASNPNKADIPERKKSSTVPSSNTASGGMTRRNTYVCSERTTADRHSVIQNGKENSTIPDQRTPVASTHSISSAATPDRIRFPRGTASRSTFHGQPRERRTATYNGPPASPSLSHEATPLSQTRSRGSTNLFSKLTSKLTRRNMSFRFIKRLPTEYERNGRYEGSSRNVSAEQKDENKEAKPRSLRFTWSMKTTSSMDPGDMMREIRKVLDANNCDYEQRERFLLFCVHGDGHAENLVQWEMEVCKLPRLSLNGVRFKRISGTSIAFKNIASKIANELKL
Description: as §1

EIF2AK2 = target: T5, EIF2AK2 (Homo sapiens, UniProt P19525)
T5 construct: purchased ProQinase (Freiburg, Germany)
T5 sequence (P19525 whole entry): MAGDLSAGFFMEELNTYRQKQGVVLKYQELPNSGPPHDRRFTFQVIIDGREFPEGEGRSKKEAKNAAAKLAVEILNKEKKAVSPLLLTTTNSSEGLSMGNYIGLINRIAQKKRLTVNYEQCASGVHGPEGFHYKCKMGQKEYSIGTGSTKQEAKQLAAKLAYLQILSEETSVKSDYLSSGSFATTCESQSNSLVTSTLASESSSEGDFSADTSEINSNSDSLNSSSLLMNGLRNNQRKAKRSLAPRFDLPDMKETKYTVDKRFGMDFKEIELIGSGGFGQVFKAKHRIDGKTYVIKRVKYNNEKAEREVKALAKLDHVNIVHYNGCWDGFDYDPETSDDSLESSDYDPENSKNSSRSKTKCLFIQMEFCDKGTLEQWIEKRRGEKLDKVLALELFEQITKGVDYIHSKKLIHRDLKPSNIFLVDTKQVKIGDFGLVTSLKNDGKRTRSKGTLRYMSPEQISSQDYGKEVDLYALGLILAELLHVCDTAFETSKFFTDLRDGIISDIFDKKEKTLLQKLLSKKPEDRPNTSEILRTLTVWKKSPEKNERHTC
Description: as §1

ERK1 = target: T6, ERK1 (Homo sapiens, UniProt P27361)
T6 construct: purchased ProQinase (Freiburg, Germany)
T6 sequence (P27361 whole entry): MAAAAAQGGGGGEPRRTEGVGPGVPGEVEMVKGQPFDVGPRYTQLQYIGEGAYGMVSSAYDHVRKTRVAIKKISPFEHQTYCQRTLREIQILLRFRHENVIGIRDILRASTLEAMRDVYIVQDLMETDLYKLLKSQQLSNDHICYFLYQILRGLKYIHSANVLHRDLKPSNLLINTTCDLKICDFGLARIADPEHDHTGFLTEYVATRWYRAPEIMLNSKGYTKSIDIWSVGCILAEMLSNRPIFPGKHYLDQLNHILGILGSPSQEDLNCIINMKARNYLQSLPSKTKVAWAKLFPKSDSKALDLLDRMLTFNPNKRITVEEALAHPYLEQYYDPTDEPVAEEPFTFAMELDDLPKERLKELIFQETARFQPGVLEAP
Description: as §1

COT = target: T7, COT (Homo sapiens, UniProt P41279)
T7 construct: purchased ProQinase (Freiburg, Germany)
Description: as §1

PRKX = target: T8, PRKX (Homo sapiens, UniProt P51817)
T8 construct: purchased ProQinase (Freiburg, Germany)
T8 sequence (P51817 1-358): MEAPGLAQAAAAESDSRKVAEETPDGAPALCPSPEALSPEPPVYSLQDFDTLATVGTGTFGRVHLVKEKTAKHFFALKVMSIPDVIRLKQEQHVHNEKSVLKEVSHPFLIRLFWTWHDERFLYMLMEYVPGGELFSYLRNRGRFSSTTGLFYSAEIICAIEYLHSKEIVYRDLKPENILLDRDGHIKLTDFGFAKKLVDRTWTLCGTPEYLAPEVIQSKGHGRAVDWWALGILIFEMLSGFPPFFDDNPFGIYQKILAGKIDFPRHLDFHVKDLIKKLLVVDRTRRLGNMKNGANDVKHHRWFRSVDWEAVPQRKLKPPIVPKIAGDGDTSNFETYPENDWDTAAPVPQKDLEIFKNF
Description: as §1

PLK3 = target: T9, PLK3 (Homo sapiens, UniProt Q9H4B4)
T9 construct: purchased ProQinase (Freiburg, Germany)
Description: as §1

CDC42BPA = target: T10, CDC42BPA (Homo sapiens, UniProt Q5VT25)
T10 construct: purchased ProQinase (Freiburg, Germany)
Description: as §1

DAPK3 = target: T11, DAPK3 (Homo sapiens, UniProt O43293)
T11 construct: purchased ProQinase (Freiburg, Germany)
T11 sequence (O43293 whole entry): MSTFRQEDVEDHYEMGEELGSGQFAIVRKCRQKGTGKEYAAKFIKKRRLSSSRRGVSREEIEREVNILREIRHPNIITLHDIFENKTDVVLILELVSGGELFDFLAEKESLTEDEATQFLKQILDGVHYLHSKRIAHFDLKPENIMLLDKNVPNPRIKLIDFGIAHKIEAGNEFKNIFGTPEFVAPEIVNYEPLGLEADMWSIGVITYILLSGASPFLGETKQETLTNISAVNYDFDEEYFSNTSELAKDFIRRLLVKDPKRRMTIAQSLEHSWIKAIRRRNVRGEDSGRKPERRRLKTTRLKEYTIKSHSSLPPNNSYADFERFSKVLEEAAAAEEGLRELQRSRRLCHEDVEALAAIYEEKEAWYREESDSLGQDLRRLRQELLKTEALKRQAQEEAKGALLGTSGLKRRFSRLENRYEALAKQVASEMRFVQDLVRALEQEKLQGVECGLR
Description: as §1

CDK2/CycE1 = target: T12, CDK2/CycE1 (Homo sapiens, UniProt P24941)
T12 construct: purchased ProQinase (Freiburg, Germany)
Description: as §1

CSF1R = target: T13, CSF1R (Homo sapiens, UniProt P07333)
T13 construct: purchased ProQinase (Freiburg, Germany)
Description: as §1

PKN3 = target: T14, PKN3 (Homo sapiens, UniProt Q6P5Z2)
T14 construct: purchased ProQinase (Freiburg, Germany)
Description: as §1

CDK5/p25NCK = target: T15, CDK5/p25NCK (Homo sapiens, UniProt Q00535)
T15 construct: purchased ProQinase (Freiburg, Germany)
Description: as §1

p38beta = target: T16, p38beta (Homo sapiens, UniProt Q15759); conditions: for inhibition at 10 µM: read-out: inhibition of p38β
T16 construct: purchased ProQinase (Freiburg, Germany)
T16 sequence (Q15759 whole entry): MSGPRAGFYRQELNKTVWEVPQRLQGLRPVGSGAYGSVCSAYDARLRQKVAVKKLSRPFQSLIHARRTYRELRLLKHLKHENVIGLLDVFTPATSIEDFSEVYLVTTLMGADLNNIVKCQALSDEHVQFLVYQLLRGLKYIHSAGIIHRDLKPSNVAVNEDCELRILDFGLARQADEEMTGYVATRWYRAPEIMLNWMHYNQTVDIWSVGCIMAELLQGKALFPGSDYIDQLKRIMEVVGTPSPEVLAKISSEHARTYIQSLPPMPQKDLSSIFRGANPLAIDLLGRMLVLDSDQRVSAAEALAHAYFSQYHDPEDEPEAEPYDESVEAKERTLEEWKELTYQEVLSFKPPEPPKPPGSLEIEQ
Description: as §1

PKCalpha = target: T17, PKCalpha (Homo sapiens, UniProt P17252)
T17 construct: purchased ProQinase (Freiburg, Germany)
Description: as §1

TXK = target: T18, TXK (Homo sapiens, UniProt P42681)
T18 construct: purchased ProQinase (Freiburg, Germany)
T18 sequence (P42681 1-527): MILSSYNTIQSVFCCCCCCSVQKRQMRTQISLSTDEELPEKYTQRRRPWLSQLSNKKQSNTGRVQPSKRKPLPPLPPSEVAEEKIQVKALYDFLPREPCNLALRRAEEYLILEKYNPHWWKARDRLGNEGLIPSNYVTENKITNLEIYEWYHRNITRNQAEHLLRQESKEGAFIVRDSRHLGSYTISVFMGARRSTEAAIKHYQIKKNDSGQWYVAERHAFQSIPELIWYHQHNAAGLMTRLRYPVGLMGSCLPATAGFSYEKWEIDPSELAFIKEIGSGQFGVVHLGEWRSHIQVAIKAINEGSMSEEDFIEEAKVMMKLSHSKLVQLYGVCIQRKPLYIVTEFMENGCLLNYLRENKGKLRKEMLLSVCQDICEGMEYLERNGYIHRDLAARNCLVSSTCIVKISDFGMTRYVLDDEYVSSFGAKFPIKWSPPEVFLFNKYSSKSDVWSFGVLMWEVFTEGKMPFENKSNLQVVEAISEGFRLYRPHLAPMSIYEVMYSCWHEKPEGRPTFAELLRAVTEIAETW
Description: as §1

RPS6KA2 = target: T19, RPS6KA2 (Homo sapiens, UniProt Q15349)
T19 construct: purchased ProQinase (Freiburg, Germany)
Description: as §1

SNK = target: T20, SNK (Homo sapiens, UniProt Q9NYY3)
T20 construct: purchased ProQinase (Freiburg, Germany)
T20 sequence (Q9NYY3 whole entry): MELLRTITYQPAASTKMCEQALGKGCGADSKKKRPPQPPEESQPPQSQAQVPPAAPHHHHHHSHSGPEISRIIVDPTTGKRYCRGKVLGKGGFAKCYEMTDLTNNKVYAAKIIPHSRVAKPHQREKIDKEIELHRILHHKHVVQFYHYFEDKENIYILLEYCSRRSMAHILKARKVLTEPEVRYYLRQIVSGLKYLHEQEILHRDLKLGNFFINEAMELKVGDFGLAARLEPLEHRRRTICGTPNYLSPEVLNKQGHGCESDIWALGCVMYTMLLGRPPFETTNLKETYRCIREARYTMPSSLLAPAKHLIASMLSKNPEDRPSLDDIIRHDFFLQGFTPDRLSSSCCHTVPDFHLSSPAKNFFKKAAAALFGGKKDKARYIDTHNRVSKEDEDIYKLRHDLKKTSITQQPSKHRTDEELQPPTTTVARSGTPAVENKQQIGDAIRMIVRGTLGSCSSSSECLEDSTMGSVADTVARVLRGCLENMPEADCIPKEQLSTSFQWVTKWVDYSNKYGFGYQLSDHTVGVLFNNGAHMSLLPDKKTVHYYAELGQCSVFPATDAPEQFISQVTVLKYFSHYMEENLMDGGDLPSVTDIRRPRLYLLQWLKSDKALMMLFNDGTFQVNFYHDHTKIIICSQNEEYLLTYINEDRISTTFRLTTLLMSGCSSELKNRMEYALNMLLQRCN
Description: as §1

STK25 = target: T21, STK25 (Homo sapiens, UniProt O00506)
T21 construct: purchased ProQinase (Freiburg, Germany)
T21 sequence (O00506 whole entry): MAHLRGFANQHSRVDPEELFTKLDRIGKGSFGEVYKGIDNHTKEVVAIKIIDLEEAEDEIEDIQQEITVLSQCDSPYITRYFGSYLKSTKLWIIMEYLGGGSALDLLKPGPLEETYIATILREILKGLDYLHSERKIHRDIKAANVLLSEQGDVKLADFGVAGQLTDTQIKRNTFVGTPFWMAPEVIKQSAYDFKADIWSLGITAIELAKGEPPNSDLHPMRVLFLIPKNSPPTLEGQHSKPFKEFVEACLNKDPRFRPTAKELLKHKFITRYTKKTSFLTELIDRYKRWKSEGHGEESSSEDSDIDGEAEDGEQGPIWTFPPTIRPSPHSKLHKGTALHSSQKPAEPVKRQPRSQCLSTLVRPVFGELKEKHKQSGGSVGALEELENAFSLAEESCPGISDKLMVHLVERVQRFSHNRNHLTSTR
Description: as §1

Structure (SMILES): O=C(Cc1ccccc1)Nc1ccc(F)c(Nc2ccc3c(c2)CCCCC3=O)c1 [Compound 100]
- Residual activity (RIPK2; 1.0E-05 M): 89 % of control
- Residual activity (RIPK2; 1.0E-06 M): 104 % of control
- Residual activity (MKK4; 1.0E-05 M): 110 % of control
- Residual activity (MKK4; 1.0E-06 M): 94 % of control
- Residual activity (HIPK2; 1.0E-05 M): 101 % of control
- Residual activity (HIPK2; 1.0E-06 M): 97 % of control
- Residual activity (MARK3; 1.0E-05 M): 103 % of control
- Residual activity (MARK3; 1.0E-06 M): 106 % of control
- Residual activity (EIF2AK2; 1.0E-05 M): 113 % of control
- Residual activity (EIF2AK2; 1.0E-06 M): 97 % of control
- Residual activity (ERK1; 1.0E-05 M): 99 % of control
- Residual activity (ERK1; 1.0E-06 M): 99 % of control
- Residual activity (COT; 1.0E-05 M): 106 % of control
- Residual activity (COT; 1.0E-06 M): 93 % of control
- Residual activity (PRKX; 1.0E-05 M): 88 % of control
- Residual activity (PRKX; 1.0E-06 M): 102 % of control
- Residual activity (PLK3; 1.0E-05 M): 114 % of control
- Residual activity (PLK3; 1.0E-06 M): 115 % of control
- Residual activity (CDC42BPA; 1.0E-05 M): 110 % of control
- Residual activity (CDC42BPA; 1.0E-06 M): 114 % of control
- Residual activity (DAPK3; 1.0E-05 M): 119 % of control
- Residual activity (DAPK3; 1.0E-06 M): 105 % of control
- Residual activity (CDK2/CycE1; 1.0E-05 M): 118 % of control
- Residual activity (CDK2/CycE1; 1.0E-06 M): 86 % of control
- Residual activity (CSF1R; 1.0E-05 M): 96 % of control
- Residual activity (CSF1R; 1.0E-06 M): 100 % of control
- Residual activity (PKN3; 1.0E-05 M): 101 % of control
- Residual activity (PKN3; 1.0E-06 M): 104 % of control
- Residual activity (CDK5/p25NCK; 1.0E-05 M): 90 % of control
- Residual activity (CDK5/p25NCK; 1.0E-06 M): 99 % of control
- inhibition at 10 µM (p38beta): ≥ 50%
- Residual activity (p38beta; 1.0E-05 M): 50 % of control
- Residual activity (p38beta; 1.0E-06 M): 71 % of control
- Residual activity (PKCalpha; 1.0E-05 M): 82 % of control
- Residual activity (PKCalpha; 1.0E-06 M): 95 % of control
- Residual activity (TXK; 1.0E-05 M): 90 % of control
- Residual activity (TXK; 1.0E-06 M): 100 % of control
- Residual activity (RPS6KA2; 1.0E-05 M): 84 % of control
- Residual activity (RPS6KA2; 1.0E-06 M): 95 % of control
- Residual activity (SNK; 1.0E-05 M): 90 % of control
- Residual activity (SNK; 1.0E-06 M): 102 % of control
- Residual activity (STK25; 1.0E-05 M): 89 % of control
- Residual activity (STK25; 1.0E-06 M): 100 % of control

Structure (SMILES): O=C(Nc1ccc(F)c(Nc2ccc3c(c2)CCCCC3=O)c1)c1cccc(F)c1 [Compound 109]
- Residual activity (RIPK2; 1.0E-05 M): 84 % of control
- Residual activity (RIPK2; 1.0E-06 M): 99 % of control
- Residual activity (MKK4; 1.0E-05 M): 111 % of control
- Residual activity (MKK4; 1.0E-06 M): 96 % of control
- Residual activity (HIPK2; 1.0E-05 M): 95 % of control
- Residual activity (HIPK2; 1.0E-06 M): 90 % of control
- Residual activity (MARK3; 1.0E-05 M): 105 % of control
- Residual activity (MARK3; 1.0E-06 M): 102 % of control
- Residual activity (EIF2AK2; 1.0E-05 M): 114 % of control
- Residual activity (EIF2AK2; 1.0E-06 M): 94 % of control
- Residual activity (ERK1; 1.0E-05 M): 102 % of control
- Residual activity (ERK1; 1.0E-06 M): 100 % of control
- Residual activity (COT; 1.0E-05 M): 97 % of control
- Residual activity (COT; 1.0E-06 M): 95 % of control
- Residual activity (PRKX; 1.0E-05 M): 85 % of control
- Residual activity (PRKX; 1.0E-06 M): 95 % of control
- Residual activity (PLK3; 1.0E-05 M): 104 % of control
- Residual activity (PLK3; 1.0E-06 M): 104 % of control
- Residual activity (CDC42BPA; 1.0E-05 M): 116 % of control
- Residual activity (CDC42BPA; 1.0E-06 M): 103 % of control
- Residual activity (DAPK3; 1.0E-05 M): 107 % of control
- Residual activity (DAPK3; 1.0E-06 M): 108 % of control
- Residual activity (CDK2/CycE1; 1.0E-05 M): 103 % of control
- Residual activity (CDK2/CycE1; 1.0E-06 M): 93 % of control
- Residual activity (CSF1R; 1.0E-05 M): 94 % of control
- Residual activity (CSF1R; 1.0E-06 M): 103 % of control
- Residual activity (PKN3; 1.0E-05 M): 92 % of control
- Residual activity (PKN3; 1.0E-06 M): 91 % of control
- Residual activity (CDK5/p25NCK; 1.0E-05 M): 95 % of control
- Residual activity (CDK5/p25NCK; 1.0E-06 M): 95 % of control
- inhibition at 10 µM (p38beta): ≥ 50%
- Residual activity (p38beta; 1.0E-05 M): 2 % of control
- Residual activity (p38beta; 1.0E-06 M): 3 % of control
- Residual activity (PKCalpha; 1.0E-05 M): 73 % of control
- Residual activity (PKCalpha; 1.0E-06 M): 92 % of control
- Residual activity (TXK; 1.0E-05 M): 97 % of control
- Residual activity (TXK; 1.0E-06 M): 97 % of control
- Residual activity (RPS6KA2; 1.0E-05 M): 75 % of control
- Residual activity (RPS6KA2; 1.0E-06 M): 95 % of control
- Residual activity (SNK; 1.0E-05 M): 92 % of control
- Residual activity (SNK; 1.0E-06 M): 94 % of control
- Residual activity (STK25; 1.0E-05 M): 91 % of control
- Residual activity (STK25; 1.0E-06 M): 90 % of control

From PMC9030254, “Target Hopping from Protein Kinases to PXR: Identification of Small-Molecule Protein Kinase Inhibitors as Selective Modulators of Pregnane X Receptor from TüKIC Library” (Cells, 2022)
